Experimental findings from patent publication US10975077B2 (Novira Therapeutics, Inc., priority 2016, dated 2021) are described below.

The first test concerns HBV (encapsidated HBV DNA, HepG2.2.15 cells). The test is described as follows: HBV replication inhibition assay, BDNA assay in HepG2.2.15 cells. The test is classed as cell-based. Conditions: Activity in BDNA-assay. The method, then:
HBV replication inhibition by the disclosed compounds were determined in cells infected or transfected with HBV, or cells with stably integrated HBV, such as HepG2.2.15 cells (Sells et al. 1987). In this example, HepG2.2.15 cells were maintained in cell culture medium containing 10% fetal bovine serum (FBS), Geneticin, L-glutamine, penicillin and streptomycin. HepG2.2.15 cells were seeded in 96-well plates at a density of 40,000 cells/well and were treated with serially diluted compounds at a final DMSO concentration of 0.5% either alone or in combination by adding drugs in a checker box format. Cells were incubated with compounds for three days, after which medium was removed and fresh medium containing compounds was added to cells and incubated for another three days. At day 6, supernatant was removed and treated with DNase at 37° C. for 60 minutes, followed by enzyme inactivation at 75° C. for 15 minutes. Encapsidated HBV DNA was released from the virions and covalently linked HBV polymerase by incubating in lysis buffer (Affymetrix QS0010) containing 2.5 μg proteinase K at 50° C. for 40 minutes. HBV DNA was denatured by addition of 0.2 M NaOH and detected using a branched DNA (BDNA) QuantiGene assay kit according to manufacturer recommendation (Affymetrix). HBV DNA levels were also quantified using qPCR, based on amplification of encapsidated HBV DNA extraction with QuickExtraction Solution (Epicentre Biotechnologies) and amplification of HBV DNA using HBV specific PCR probes that can hybridize to HBV DNA and a fluorescently labeled probe for quantitation. In addition, cell viability of HepG2.2.15 cells incubated with test compounds alone or in combination was determined by using CellTitre-Glo reagent according to the manufacturer protocol (Promega). The mean background signal from wells containing only culture medium was subtracted from all other samples, and percent inhibition at each compound concentration was calculated by normalizing to signals from HepG2.2.15 cells treated with 0.5% DMSO using equation E1. % inhibition=(DMSOave−Xi)/DMSOave×100% E1: where DMSOave is the mean signal calculated from the wells that were treated with DMSO control (0% inhibition control) and Xi is the signal measured from the individual wells. EC50 values, effective concentrations that achieved 50% inhibitory effect, were determined by non-linear fitting using Graphpad Prism software (San Diego, Calif.) and equation E2: Y=Y min+(Y max −Y min)/(1+10(Log EC50−X)×HillSlope) E2: […]
where Y represents percent inhibition values and X represents the logarithm of compound concentrations.
Selected disclosed compounds were assayed in the HBV replication assay (BDNA assay), as described above and a representative group of these active compounds is shown in Table 6.
Turning to `CCC(O)C1CN(C)C(=O)c2c3c(nn2C1)CCN(C(=O)Nc1ccc(F)c(C#N)c1F)C3` (single isomer, unassigned) [Compound 098_E1, (R*)—N-(3-cyano-2,4-difluorophenyl)-8-((S*)-1-hydroxypropyl)-10-methyl-11-oxo-1,3,4,7,8,9,10,11-octahydro-2H-pyrido[4′,3′:3,4]pyrazolo[1,5-a][1,4]diazepine-2-carboxamide], the EC50 (as a rule, the concentration at which the effect is half-maximal) fell in the range of 1 to 100 nM.

For the compound `CCC(O)C1CN(C)C(=O)c2c3c(nn2C1)CCN(C(=O)Nc1ccc(F)c(C#N)c1F)C3` (single isomer, unassigned) [Compound 098_E2, (S*)—N-(3-cyano-2,4-difluorophenyl)-8-((R*)-1-hydroxypropyl)-10-methyl-11-oxo-1,3,4,7,8,9,10,11-octahydro-2H-pyrido[4′,3′:3,4]pyrazolo[1,5-a][1,4]diazepine-2-carboxamide], the EC50 lay in the range of 500 to 1000 nM. Consider `CCC(O)C1CN(C)C(=O)c2c3c(nn2C1)CCN(C(=O)Nc1ccc(F)c(C#N)c1F)C3` (single isomer, unassigned) [Compound 098_E3, (S*)—N-(3-cyano-2,4-difluorophenyl)-8-((S*)-1-hydroxypropyl)-10-methyl-11-oxo-1,3,4,7,8,9,10,11-octahydro-2H-pyrido[4′,3′:3,4]pyrazolo[1,5-a][1,4]diazepine-2-carboxamide], for which the EC50 was 100 to 500 nM. On to `CCC(O)C1CN(C)C(=O)c2c3c(nn2C1)CCN(C(=O)Nc1ccc(F)c(C#N)c1F)C3` (single isomer, unassigned) [Compound 098_E4, (R*)—N-(3-cyano-2,4-difluorophenyl)-8-((R*)-1-hydroxypropyl)-10-methyl-11-oxo-1,3,4,7,8,9,10,11-octahydro-2H-pyrido[4′,3′:3,4]pyrazolo[1,5-a][1,4]diazepine-2-carboxamide], for which the EC50 was in the range of 500 to 1000 nM. For `CCC(O)C1CN(C)C(=O)c2c3c(nn2C1)CCN(C(=O)Nc1ccc(F)c(C(F)(F)F)c1)C3` (single isomer, unassigned) [Compound 099_E1, (R*)—N-(4-fluoro-3-(trifluoromethyl)phenyl)-8-((S*)-1-hydroxypropyl)-10-methyl-11-oxo-1,3,4,7,8,9,10,11-octahydro-2H-pyrido[4′,3′:3,4]pyrazolo[1,5-a][1,4]diazepine-2-carboxamide], the EC50 is 1 to 100 nM. `CCC(O)C1CN(C)C(=O)c2c3c(nn2C1)CCN(C(=O)Nc1ccc(F)c(C(F)(F)F)c1)C3` (single isomer, unassigned) [Compound 099_E2, (S*)—N-(4-fluoro-3-(trifluoromethyl)phenyl)-8-((R*)-1-hydroxypropyl)-10-methyl-11-oxo-1,3,4,7,8,9,10,11-octahydro-2H-pyrido[4′,3′:3,4]pyrazolo[1,5-a][1,4]diazepine-2-carboxamide]: the EC50 is 100 to 500 nM.

Take `CCC(O)C1CN(C)C(=O)c2c3c(nn2C1)CCN(C(=O)Nc1ccc(F)c(C(F)(F)F)c1)C3` (single isomer, unassigned) [Compound 099_E3, (S*)—N-(4-fluoro-3-(trifluoromethyl)phenyl)-8-((S*)-1-hydroxypropyl)-10-methyl-11-oxo-1,3,4,7,8,9,10,11-octahydro-2H-pyrido[4′,3′:3,4]pyrazolo[1,5-a][1,4]diazepine-2-carboxamide]: the EC50 was in the range of 1 to 100 nM.

Consider `CCC(O)C1CN(C)C(=O)c2c3c(nn2C1)CCN(C(=O)Nc1ccc(F)c(C(F)(F)F)c1)C3` (single isomer, unassigned) [Compound 099_E4, (R*)—N-(4-fluoro-3-(trifluoromethyl)phenyl)-8-((R*)-1-hydroxypropyl)-10-methyl-11-oxo-1,3,4,7,8,9,10,11-octahydro-2H-pyrido[4′,3′:3,4]pyrazolo[1,5-a][1,4]diazepine-2-carboxamide], for which the EC50 is 100 to 500 nM. On to `CN1CC(CNCC(F)F)Cn2nc3c(c2C1=O)CN(C(=O)Nc1ccc(F)c(C(F)(F)F)c1)CC3` (single isomer, unassigned) [Compound 119_E1, (R*)-8-(((2,2-difluoroethyl)amino)methyl)-N-(4-fluoro-3-(trifluoromethyl)phenyl)-10-methyl-11-oxo-1,3,4,7,8,9,10,11-octahydro-2H-pyrido[4′,3′:3,4]pyrazolo[1,5-a][1,4]diazepine-2-carboxamide], for which the EC50 was 100 to 500 nM.

The same test, now with this note: Hepatitis B virus, HepG2.2.15, Activity in BDNA-assay.
For the compound `CCC(O)C1CN(C)C(=O)c2c3c(nn2C1)CCN(C(=O)Nc1ccc(F)c(Cl)c1F)C3` (single isomer, unassigned) [Compound 100_E1, (R*)—N-(3-chloro-2,4-difluorophenyl)-8-((S*)-1-hydroxypropyl)-10-methyl-11-oxo-1,3,4,7,8,9,10,11-octahydro-2H-pyrido[4′,3′:3,4]pyrazolo[1,5-a][1,4]diazepine-2-carboxamide], the EC50 lay within 1 to 100 nM. For the compound `CCC(O)C1CN(C)C(=O)c2c3c(nn2C1)CCN(C(=O)Nc1ccc(F)c(Br)c1F)C3` (single isomer, unassigned) [Compound 101_E1, (R*)—N-(3-bromo-2,4-difluorophenyl)-8-((S*)-1-hydroxypropyl)-10-methyl-11-oxo-1,3,4,7,8,9,10,11-octahydro-2H-pyrido[4′,3′:3,4]pyrazolo[1,5-a][1,4]diazepine-2-carboxamide], the EC50 lay within 1 to 100 nM. Regarding `CCC(O)C1CN(C)C(=O)c2c3c(nn2C1)CCN(C(=O)Nc1ccc(F)c(C(F)(F)F)c1F)C3` (single isomer, unassigned) [Compound 103_E1, (R*)—N-(2,4-difluoro-3-(trifluoromethyl)phenyl)-8-((S*)-1-hydroxypropyl)-10-methyl-11-oxo-1,3,4,7,8,9,10,11-octahydro-2H-pyrido[4′,3′:3,4]pyrazolo[1,5-a][1,4] diazepine-2-carboxamide], the EC50 was in the range of 1 to 100 nM. On the same count and under the same terms, in the case of `CCC(O)C1CN(C)C(=O)c2c3c(nn2C1)CCN(C(=O)Nc1cc(F)c(F)c(F)c1)C3` (single isomer, unassigned) [Compound 104_E1, (R*)-8-((S*)-1-hydroxypropyl)-10-methyl-11-oxo-N-(3,4,5-trifluorophenyl)-1,3,4,7,8,9,10,11-octahydro-2H-pyrido[4′,3′:3,4]pyrazolo[1,5-a][1,4] diazepine-2-carboxamide] it was 1 to 100 nM; in that of `CCC(O)C1CN(C)C(=O)c2c3c(nn2C1)CCN(C(=O)Nc1cc(F)c(F)c(F)c1F)C3` (single isomer, unassigned) [Compound 105_E1, (R*)-8-((S*)-1-hydroxypropyl)-10-methyl-11-oxo-N-(2,3,4,5-tetrafluorophenyl)-1,3,4,7,8,9,10,11-octahydro-2H-pyrido[4′,3′:3,4]pyrazolo[1,5-a][1,4]diazepine-2-carboxamide], 1 to 100 nM.

Turning to `CN1CC(CNCC(F)F)Cn2nc3c(c2C1=O)CN(C(=O)Nc1ccc(F)c(C#N)c1)CC3` (single isomer, unassigned) [Compound 118_E1, (R*)—N-(3-cyano-4-fluorophenyl)-8-(((2,2-difluoroethyl)amino)methyl)-10-methyl-11-oxo-1,3,4,7,8,9,10,11-octahydro-2H-pyrido[4′,3′:3,4]pyrazolo[1,5-a][1,4]diazepine-2-carboxamide], the EC50 is 100 to 500 nM. On to `CN1CC(CNCC(F)F)Cn2nc3c(c2C1=O)CN(C(=O)Nc1ccc(F)c(C#N)c1)CC3` (single isomer, unassigned) [Compound 118_E2, (S*)—N-(3-cyano-4-fluorophenyl)-8-(((2,2-difluoroethyl)amino)methyl)-10-methyl-11-oxo-1,3,4,7,8,9,10,11-octahydro-2H-pyrido[4′,3′:3,4]pyrazolo[1,5-a][1,4]diazepine-2-carboxamide], for which the EC50 lay within 1 to 100 nM.
